Experimental data as given in ChEMBL document CHEMBL1130440, “N-Methyl-2-[4-(2-methylpropyl)phenyl]-3-(3-methoxy-5-methylpyrazin-2-ylsulfamoyl)benzamide; one of a class of novel benzenesulphonamides which are orally-active, ETA-selective endothelin antagonists” (Bioorg Med Chem Lett, 1997).

Experiments:
[1] = target: T1, Endothelin-1 receptor (Homo sapiens, UniProt P25101); assay: In vitro binding was measured by the displacement of [125I]ET1 from membranes prepared from MEL cells transfected with cloned human ETA receptors; type: cell membranes
T1 sequence (P25101 whole entry): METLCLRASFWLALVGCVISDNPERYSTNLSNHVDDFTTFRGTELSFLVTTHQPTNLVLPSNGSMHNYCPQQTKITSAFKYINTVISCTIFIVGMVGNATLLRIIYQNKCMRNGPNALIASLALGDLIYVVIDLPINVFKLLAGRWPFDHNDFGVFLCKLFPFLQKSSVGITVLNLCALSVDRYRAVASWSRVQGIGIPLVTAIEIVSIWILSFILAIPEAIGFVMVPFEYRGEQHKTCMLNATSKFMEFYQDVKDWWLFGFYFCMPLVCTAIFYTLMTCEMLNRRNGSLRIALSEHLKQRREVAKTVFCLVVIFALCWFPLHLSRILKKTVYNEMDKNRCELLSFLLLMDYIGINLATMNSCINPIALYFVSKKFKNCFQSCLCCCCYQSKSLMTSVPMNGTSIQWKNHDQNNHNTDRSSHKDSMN

[2] = system: Rattus norvegicus; assay: In vivo mean dose ratio (MDR) activity against the pressor response induced by big ET-1 in alderley park rats at 1 hr after (1 mg/kg) oral administration; type: functional
[3] = system: Rattus norvegicus; assay: In vivo mean dose ratio(MDR) activity against the pressor response induced by big ET-1 in alderley park rats at 30 min after (2.5 mg/kg) oral administration; type: functional
[4] = system: Rattus norvegicus; assay: In vivo mean dose ratio(MDR) activity against the pressor response induced by big ET-1 in alderley park rats at 2 hr after (2.5 mg/kg) oral administration; type: functional
[5] = system: Rattus norvegicus; assay: In vivo mean dose ratio(MDR) activity against the pressor response induced by big ET-1 in alderley park rats at 4 hr after (2.5 mg/kg) oral administration; type: functional

SMILES	IC50 [1]	MDR [2]	also measured
COc1nc(C)cnc1NS(=O)(=O)c1cccc(C(N)=O)c1-c1ccc(CC(C)C)cc1	1 nM	2.4	–
COc1nc(Br)cnc1NS(=O)(=O)c1ccccc1-c1ccccc1	31.6 nM	–	–
CNC(=O)c1cccc(S(=O)(=O)Nc2ncc(Br)nc2OC)c1-c1ccccc1	39.8 nM	–	–
COc1nc(Br)cnc1NS(=O)(=O)c1cccc(C(N)=O)c1-c1ccc(CC(C)C)cc1	0.794 nM	–	–
CNC(=O)c1cccc(S(=O)(=O)Nc2ncc(C)nc2OC)c1-c1ccc(CC(C)C)cc1	0.501 nM	3.2	Oral activity [3]: 6.2; Oral activity [4]: 3.3; Oral activity [5]: 4
COc1nc(Br)cnc1NS(=O)(=O)c1cccc(C(=O)N(C)C)c1-c1ccc(CC(C)C)cc1	1 nM	–	–
CCCCCNC(=O)c1cccc(S(=O)(=O)Nc2ncc(Br)nc2OC)c1-c1ccccc1	3.98 nM	–	–

Second part, led by results:

IC50 [1]	SMILES	MDR [2]	also measured
0.501 nM	COCCNC(=O)c1cccc(S(=O)(=O)Nc2ncc(C)nc2OC)c1-c1ccc(CC(C)C)cc1	3.2	–
1.58 nM	COCCNC(=O)c1cccc(S(=O)(=O)Nc2ncc(Br)nc2OC)c1-c1ccc(CC(C)C)cc1	2.1	–
200 nM	CCCCCNC(=O)c1cccc(S(=O)(=O)Nc2ncc(Br)nc2OC)c1-c1ccc(CC(C)C)cc1	–	–
2.51 nM	COc1nc(C)cnc1NS(=O)(=O)c1cccc(C(=O)N(C)C)c1-c1ccc(CC(C)C)cc1	1.6	–
1.26 nM	CNC(=O)c1cccc(S(=O)(=O)Nc2ncc(Br)nc2OC)c1-c1ccc(CC(C)C)cc1	2.7	–
39.8 nM	COc1nc(Br)cnc1NS(=O)(=O)c1ccccc1-c1ccc(CC(C)C)cc1	–	–
0.631 nM	COc1nc(C)cnc1NS(=O)(=O)c1cccc(C(=O)NCCO)c1-c1ccc(CC(C)C)cc1	4.2	–
39.8 nM	COc1nc(Br)cnc1NS(=O)(=O)c1cccc(C(N)=O)c1-c1ccccc1	–	–
